# Values of other authors in patent publication US6784266B2, “Dual stimuli-responsive hydrogels and their synthetic methods” (Korea Institute of Science and Technology, priority 2002, dated 2004).
# Conditions: pKa stated for the sulfonamide reagent; no measurement method described
compound,measurement,value
COc1ccc(NS(=O)(=O)c2ccc(N)cc2)nn1 [sulfamethoxypyridazine],pKa,6.7
